Patent US6433174B1, “Process for producing novel naphthyridine derivatives” (Nippon Kayaku Kabushiki Kaisha, priority 1998, dated 2002)

Experiments:
NK-2 receptor [1] = target: T1, NK-2 receptor (Cavia porcellus, UniProt Q64077); test: Inhibitory action against stricture of airway caused by NK-2 receptor stimulation and antigen inhalation; type: in vivo; conditions: guinea pig
T1 construct: Specimens were prepared by joining 5 slices from said trachea; from tissue; host or cells: isolated guinea pig trachea (A2); anesthetized guinea pig airway in vivo (A5)
T1 sequence (Q64077 1-402): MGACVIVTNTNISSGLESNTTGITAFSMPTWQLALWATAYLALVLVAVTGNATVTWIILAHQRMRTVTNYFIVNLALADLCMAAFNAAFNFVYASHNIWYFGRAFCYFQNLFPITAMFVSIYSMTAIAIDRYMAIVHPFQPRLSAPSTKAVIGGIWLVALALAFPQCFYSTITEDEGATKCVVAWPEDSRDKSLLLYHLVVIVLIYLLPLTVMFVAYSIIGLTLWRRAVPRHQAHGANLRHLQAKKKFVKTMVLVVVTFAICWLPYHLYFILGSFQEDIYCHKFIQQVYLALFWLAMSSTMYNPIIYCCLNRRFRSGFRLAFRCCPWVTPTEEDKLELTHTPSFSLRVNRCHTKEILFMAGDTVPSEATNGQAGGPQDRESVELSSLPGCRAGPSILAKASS
Protocol: Inhibitory Action Against Stricture of Airway
The non-treated Hartley strain male guinea pigs and the Hartley strain male guinea pigs which had been actively sensitized by subcutaneous administration of 300 mg/kg of ovalbumin 14 to 21 days ago were used. A tube was inserted into the trachea of each guinea pig anesthetized with pentobarbital, and positive pressure breathing was conducted at a rate of 60 times of breathing per minute (10 ml/kg) by an artificial breathing system. Lateral pressure of the tube in the trachea was measured as an index of stricture of airway. Spontaneous respiration was inhibited by the administration of succinylcholine. To the non-treated guinea pigs, 2 μmol of Nle10 neurokinin A (4-10)—a specific stimulant to NK-2 receptor—was intravenously injected repeatedly at intervals of 10 minutes. After the induced airway restriction reaction was stabilized, the drug was administered intravenously or perorally. 3 minutes after intravenous administration or 50 minutes after peroral or intraduodenal administration, Nle10 neurokinin A (4-10) was again intravenously injected. The inhibition rate by the drug was determined with the degree of airway restriction before drug administration as control.
15 minutes after intravenous administration of 4.6 μmol/kg of phosphoramidon to each actively sensitized guinea pig, it was forced to inhale, for 2 minutes, an aerosol of an antigen ovalbumin solution (2 mg/ml) generated by a supersonic nebulizer to induce stricture of the airway. The drug or its solvent was administered perorally 50 minutes before the antigen inhalation. 8 minutes after antigen inhalation of the solvent-administered group, the inhibition rate of the drug-administered group was determined with the degree of airway stricture of the solvent-administered group as control.

Mouse = test: Toxic action in mouse, intravenous administration; type: in vivo
Source text: Toxicity of the novel naphthyridine derivatives of the present invention was examined.

NK-2 receptor [2] = target: T1, NK-2 receptor; test: Antagonistic action against NK-2 receptor: neurokinin A-induced contraction of isolated guinea pig trachea; type: cell-based; conditions: drug concentration 5 × 10^−9 M, neurokinin A 1×10^−9 M, 110-minute incubation, read-out: Inhibition rate of neurokinin A-induced contraction
Protocol: Antagonistic Action Against NK-2 Receptor
A Hartley-strain male guinea pig was caused to die by head contusion and blood depletion, and its trachea was extracted. Specimens were prepared by joining 5 slices from said trachea, and they were suspended with a tension of 0.5 gram-weight in a 15-ml Magunus tank containing a 37° C. Krebs-Henseleit liquid through which a mixed gas of 95% O2 and 5% CO2 had been passed. A Krebs-Henseleit liquid containing indomethacin (5×10^−6 M) was used to obviate the participation of endogenous prostaglandin. After confirming the maximum contraction of each specimen by methacholine, a drug or its solvent was added and, after 110-minute incubation, neurokinin A (1×10^−9 M) was acted thereto. Phosphoramidon (1×10^−5 M) was added for inhibiting decomposition of neurokinin A 30 minutes before the addition of neurokinin A and (±) CP-96345 (3×10^−7 M) was added for eliminating the participation of NK-1 receptor 20 minutes before the addition of neurokinin A. The contraction by neurokinin A was first determined as a ratio to the maximum contraction of each specimen, and then the inhibition rate by the drug was determined with the amount of contraction of the solvent-added specimen as control.

NK-2 receptor [3] = target: T2, NK-2 receptor (Rattus norvegicus, UniProt P16610); test: NK-2 receptor binding test (125I-neurokinin A, rat duodenum membrane preparation); conditions: rat duodenum membranes, 125I-neurokinin A 1×10^−9 M, room temperature, 90 minutes; read-out: IC50 of the drug against radioactive neurokinin A binding
T2 construct: from tissue; host or cells: rat duodenum membrane preparation
T2 sequence (P16610 1-390): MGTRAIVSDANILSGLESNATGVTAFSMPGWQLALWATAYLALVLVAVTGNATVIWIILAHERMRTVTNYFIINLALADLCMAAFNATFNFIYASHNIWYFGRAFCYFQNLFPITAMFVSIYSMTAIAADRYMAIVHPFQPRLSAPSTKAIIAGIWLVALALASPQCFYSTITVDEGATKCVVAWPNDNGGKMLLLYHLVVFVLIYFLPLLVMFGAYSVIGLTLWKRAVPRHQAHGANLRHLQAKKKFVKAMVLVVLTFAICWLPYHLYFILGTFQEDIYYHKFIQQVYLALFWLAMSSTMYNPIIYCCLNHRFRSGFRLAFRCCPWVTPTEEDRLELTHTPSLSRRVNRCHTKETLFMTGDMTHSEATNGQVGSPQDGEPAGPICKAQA
Protocol: NK-2 Receptor Binding Test
The duodenum taken out from a Fischer-strain male rat was homogenized in a 50 mM tris-hydrochloride buffer solution containing ethylenediaminetetracetic acid (1 mM), and 48,000 g of the obtained homogenate was subjected to centrifugal sedimentation at 4° C. for 20 minutes. The produced pellets were washed thrice with 10 times as much volume of a 50 mM trishydrochloride butter solution containing KCl (300 mM) and ethylenediaminetetracetic acid (10 mM), and the obtained membrane preparation was suspended in 10 times as much volume of a 50 mM tris-hydrochloride buffer solution (pH 7.4) and kept at −80° C. till it was offered to use. The above membrane preparation (20 mg/ml) was incubated with a radioactive legand 125 I-neurokinin A (1×10^−9 M) in a 50 mM tris-hydrochloride buffer solution (pH 7.4) containing bovine serum albumin (10 mg/ml), bacitracin (40 μg/ml), leupepsin (4 μg/ml), chymostatin (50 μg/ml), antipain (1×10^−4 M) and MnCl2 (1 mM) in the presence of a drug or its solvent at room temperature for 90 minutes. The reaction solution was suction-filtered by a GE/B filter pretreated with polyethylene-imine (0.1%), and was washed with 3 ml of a 50 mM tris-hydrochloride buffer solution (pH 7.4) containing MnCl2 (1 mM), and the radioactivity in the filter was measured by a gamma counter. With the radioactivity in the presence of Nle10 eurokinin A (4-10) (3×10^−6 M) being taken as non-specific binding, the specific binding inhibition rate by the drug was given as control in the case of a solvent, and the 50% inhibition concentration (IC50) of the drug was determined from the linear regression.

NK-1 receptor = target: T3, NK-1 receptor (Cavia porcellus, UniProt P30547); test: Antagonistic action against NK-1 receptor: Methyl Substance P-induced contraction of isolated guinea pig ileum; type: cell-based; conditions: Methyl Substance P 1×10^−9 M, 35-minute incubation, read-out: IC50 of the drug against contraction by Methyl Substance P
T3 construct: its ileum was extracted; An approximately 3 cm long specimen was prepared therefrom; from tissue; host or cells: isolated guinea pig ileum
Protocol: Antagonistic Action Against NK-1 Receptor
A Hartley strain male guinea pig was caused to die by head contusion and blood depletion, and its ileum was extracted. An approximately 3 cm long specimen was prepared therefrom, and it was suspended with a tension of 0.5 gram-weight in a 15 ml Mogunus tank containing a 37° C. Krebs-Henseleit liquid through which a mixed gas of 95% O2 and 5% CO2 had been passed. A Krebs-Henseleit liquid containing atropin (1×10^−6 M) and indomethacin (5×10^−6 M) was used to get rid of the participation of endogenous acetylcholine and prostaglandin. Methyl Substance P (1×10^−9 M), which is a specific stimulant of NK-1 receptor, was acted repeatedly at intervals of 40 minutes. After contraction by Methyl Substance P was stabilized, the drug was added in various concentrations and, after 35-minute incubation, Methyl Substance P was again acted. The contraction inhibition rate by the drug was determined with the contraction just before the addition of the drug as control, and the 50% inhibition concentration (IC50) of the drug was calculated from the linear regression.

NK-3 receptor = target: T4, NK-3 receptor (Cavia porcellus, UniProt P30098); test: Antagonistic action against NK-3 receptor: senktide-induced contraction of isolated guinea pig ileum; type: cell-based; conditions: senktide 1×10^−9 M, 35-minute incubation, read-out: IC50 of the drug against contraction by senktide
T4 construct: its ileum was extracted; An approximately 3 cm long specimen was prepared therefrom; from tissue; host or cells: isolated guinea pig ileum
T4 sequence (P30098 1-440): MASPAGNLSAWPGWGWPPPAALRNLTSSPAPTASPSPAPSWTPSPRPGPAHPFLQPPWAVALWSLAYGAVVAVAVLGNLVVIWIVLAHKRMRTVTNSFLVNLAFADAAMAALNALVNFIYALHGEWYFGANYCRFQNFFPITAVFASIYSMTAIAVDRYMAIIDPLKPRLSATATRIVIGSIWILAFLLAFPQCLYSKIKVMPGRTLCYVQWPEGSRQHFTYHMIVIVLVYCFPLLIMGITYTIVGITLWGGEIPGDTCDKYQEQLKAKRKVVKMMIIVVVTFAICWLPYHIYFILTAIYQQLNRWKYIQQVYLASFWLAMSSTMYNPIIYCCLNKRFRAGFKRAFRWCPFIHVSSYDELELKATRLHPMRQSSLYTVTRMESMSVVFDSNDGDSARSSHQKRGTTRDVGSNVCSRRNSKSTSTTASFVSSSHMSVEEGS
Protocol: Antagonistic Action Against NK-3 Receptor
A Hartley-strain male guinea pig was caused to die by head contusion and blood depletion, and its ileum was extracted. An approximately 3 cm long specimen was prepared therefrom, and it was suspended with a tension of 0.5 gram-weight in a 15 ml Magunus tank containing a 37° C. Kregs-Henseleit liquid through which a mixed gas of 95% O2 and 5% CO2 had been passed. A Krebs-Henseleit liquid containing atropin (1×10^−6 M) and indomethacin (5×10^−6 M) was used to obviate the participation of endogenous acetylcholine and prostaglandin. Senktide (1×10^−9 M), which is a specific stimulant of NK-3 receptor, was acted repeatedly at intervals of 50 minutes. After contraction by senktide was stabilized, the drug was added in various concentrations and, after 35-minute incubation, senktide was again acted. The contraction inhibition rate by the drug was determined with the amount of contraction just before the addition of the drug as control, and the 50% inhibition concentration (IC50) of the drug was determined from the linear regression.

T3 sequence (P30547 whole entry): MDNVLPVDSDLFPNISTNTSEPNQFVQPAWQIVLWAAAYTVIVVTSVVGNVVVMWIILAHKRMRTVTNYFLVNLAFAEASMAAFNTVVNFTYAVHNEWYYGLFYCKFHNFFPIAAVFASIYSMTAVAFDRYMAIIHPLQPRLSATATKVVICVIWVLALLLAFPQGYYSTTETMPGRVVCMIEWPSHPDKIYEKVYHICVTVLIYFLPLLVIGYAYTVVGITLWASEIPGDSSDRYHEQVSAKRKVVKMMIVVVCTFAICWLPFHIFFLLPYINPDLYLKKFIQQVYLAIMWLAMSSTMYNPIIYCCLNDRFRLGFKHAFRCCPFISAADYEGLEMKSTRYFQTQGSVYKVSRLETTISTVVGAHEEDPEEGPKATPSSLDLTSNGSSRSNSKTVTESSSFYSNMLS

`CN(CC(CCN1CCc2nc3c(cc2C1)CCCC3)c1ccc(Cl)c(Cl)c1)C(=O)c1ccccc1` (stereo not drawn) [(2)-b] was tested, and the “Inhibition rate (%) NK-2 receptor stimulation and antigen inhalation” value (NK-2 receptor [1]; 1 μmol/kg, Intravenous) was 94.2%, the “Inhibition rate (%) NK-2 receptor stimulation and antigen inhalation” value (NK-2 receptor [1]; 8 μmol/kg, Peroral) was 67.2% and the “Inhibition rate (%) NK-2 receptor stimulation and antigen inhalation” value (NK-2 receptor [1]; 10 μmol/kg, Peroral) was 54.1%. The “Toxicity by intravenous administration of the drug” value (“Toxicity” below) (Mouse; 22 μmol/kg intravenous) was “None”, the “Toxicity” value (Mouse; 65 μmol/kg intravenous) was “None” and the inhibition at 0.005 µM (NK-2 receptor [2]) was 89.1%. It also gave an IC50 (NK-2 receptor [3]) of 56 nM, an IC50 (NK-1 receptor) of 470 nM and an IC50 (NK-3 receptor) of 180 nM.
With `CN(CC(CCN1CCc2nc3ccccc3c(-c3ccccc3)c2C1)c1ccc(Cl)c(Cl)c1)C(=O)c1ccccc1` (stereo not drawn) [(3)-b] the “Inhibition rate (%) NK-2 receptor stimulation and antigen inhalation” value (NK-2 receptor [1]; 0.5 μmol/kg, Intravenous) was 70.0% and the IC50 (NK-2 receptor [3]) was 70 nM.
`CC(=O)Nc1c2c(nc3ccccc13)CCN(CCC(CN(C)C(=O)c1ccccc1)c1ccc(Cl)c(Cl)c1)C2` (stereo not drawn) [(6)-b] was tested, and the “Inhibition rate (%) NK-2 receptor stimulation and antigen inhalation” value (NK-2 receptor [1]; 0.5 μmol/kg, Intravenous) was 100.0%, the “Inhibition rate (%) NK-2 receptor stimulation and antigen inhalation” value (NK-2 receptor [1]; 8 μmol/kg, Peroral) was 81.5% and the “Toxicity” value (Mouse; 65 μmol/kg intravenous) was “None”. For the same molecule, the IC50 (NK-2 receptor [3]) was 18 nM.
